Counter-ions that a name gives are not always drawn. Like-named read-outs stand apart in the source and are kept apart here.

Holding throughout (assay type): biochemical
The target in one experiment is T1, E. coli DNA gyrase (Escherichia coli, UniProt P0AES4+P0AES6).
T1 construct: purchased Inspiralis, UK
Description: DNA gyrase supercoiling assay (E. coli). The following applies: for inhibition at 50 µM: E. coli, conc. 50 μM, n/a = not active. The essentials: (§1)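 Relaxed pBR322 (0.5 μg) supercoiled by E. coli (2 U) or S. aureus (1 U) gyrase, 30 min at 37° C; compounds at single 200, 100 or 50 μM, duplicate. Supercoiled band quantified on ethidium-stained agarose gel, expressed as % inhibition vs DMSO control; IC50 by two-parameter exponential decay fit.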

In a further experiment the target is T2, E. coli Topoisomerase IV (Escherichia coli, UniProt P0AFI2+P20083).
T2 construct: purchased Inspiralis, UK
As to the kind of experiment: Topoisomerase IV decatenation assay (E. coli). Particulars: for inhibition at 50 µM: E. coli, conc. 50 μM, n/a = not active, read-out: % inhibition Topo IV. The essentials: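 Topo IV decatenation of kDNA (200 ng) with 0.5 U enzyme in HEPES-KOH pH 7.6 buffer containing 1 mM ATP and Mg acetate, 30 min at 37 °C. Single-concentration screen (200, 100 or 50 μM) in duplicate. Decatenated minicircles resolved on agarose, ethidium-stained band intensity expressed as % inhibition versus vehicle; IC50 from exponential-decay curve fit.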

The target in the next experiment is T3, S. aureus DNA gyrase (Staphylococcus aureus, UniProt P0A0K8+P20831).
T3 construct: purchased Inspiralis, UK
As to the kind of experiment: DNA gyrase supercoiling assay (S. aureus). Particulars: for inhibition at 50 µM: S. aureus, conc. 50 μM, n/a = not active. An outline of the steps: as §1

Experiment [1] deals with T4, S. aureus Topoisomerase IV (Staphylococcus aureus, UniProt P0C1S7+P0C1U9).
T4 construct: purchased Inspiralis, UK
Description: Topoisomerase IV decatenation assay (S. aureus). The following applies: for inhibition at 50 µM: read-out: % inhibition Topo IV. As for the experimental part:
The above compounds were tested for the inhibition of the enzyme DNA gyrase in a gyrase supercoiling assay and for the inhibition of the enzyme topoisomerase IV in a decatenation assay, in both Gram positive and Gram negative bacteria, according to the following methods.
Both the assays were carried out according to a set-up method modified from the article to Blanche F, et al. “Differential Behaviors of Staphylococcus aureus and Escherichia coli Type II DNA Topoisomerases”, Antimicrob. Agents Chemother., 1996, Vol. 40, No. 12 p. 2714-2720.
The compounds were screened at single concentration (200, 100 or 50 μM), in duplicate.
S. aureus and E. coli Topoisomerase IV decatenation kits (Inspiralis, UK) were used. A master mix with a total volume sufficient for the number of reactions to perform was prepared with the following reagents: 5× assay buffer (50 mM HEPES-KOH (pH 7.6), 100 mM potassium glutamate, 10 mM magnesium acetate, 10 mM DTT, 1 mM ATP, 50 μg/ml albumin), kDNA substrate (200 ng/reaction), RNase-DNase free water. Aliquots of this mix were dispensed in each tube, then 10× compound stock solutions or vehicle control (DMSO), were added in each reaction tube.
Reaction was started with Topoisomerase IV enzyme (0.5 U/reaction) addition.
A sample added with an equal volume of dilution buffer was used as negative control (without enzyme).
The reaction tubes were gentle vortexed and incubated 30 minutes at 37° C. Each reaction was stopped by adding 30 μl of Stop Buffer and 30 μl of chloroform/isoamyl alcohol (24/1), briefly vortexed for 5-10 seconds and centrifuged at 20000×g for 2 minutes. Samples taken from the upper phase were loaded into 1% agarose gel and subjected to electrophoresis for 1 hour at 80V constant voltage in TAE (40 mM Tris-acetate, 2 mM EDTA).
Data acquisition and analysis. Due to the high molecular mass, kDNA could not enter an agarose gel under normal electrophoresis conditions, but remained in the wells. In the presence of Topo IV topoisomerase mini-circles (2.5 Kb) were released from kDNA by decatenation and were quickly and easily resolved in the gel at relatively high voltages.
Bands were visualized by ethidium bromide staining (dil 1:20000) for 30 minutes followed by destaining in distilled water for 10 minutes.
For single concentration screening assay, in order to evaluate the compounds activity on the enzymes, the bands of decatenated DNAs in the gel were photographed by a digital imaging system ImageQuant LAS 4000 (GE Healthcare) according to manufacturer's instructions.
The fluorescent intensity of each band was analyzed by ImageQuant TL software and it was expressed as volume (volume of the uncalibrated quantity of material in the image feature after subtraction of the background intensity by using rolling ball method).
Each band intensity was compared, as percentage, to vehicle sample band intensity, which served as positive control, on the same gel.
Inhibitory activity was expressed as percent of inhibition versus the positive control.
The supercoiled or decatenated DNA bands obtained as described in Example 1 were analysed as follows.
Bands were analyzed by gel documentation equipment (Syngene, Cambridge, UK) and quantitated using Syngene Gene Tools software. Raw gel data (fluorescent band volumes) collected from Syngene, GeneTools gel analysis software were converted to a percentage of the 100% control (the fully supercoiled or decatenated DNA band). […] The IC50 data were calculated by using the global curve fit non-linear regression tool by selecting the Single, 2 Parameter fit function from the Exponential Decay equation category.

The mark [2] stands for this setting: S. aureus, concentration-response curve, eight half-log concentrations 0.1 to 300 μM, read-out: IC50 Topo IV.
Setting [3] is: S. aureus, conc. 50 μM, n/a = not active.

T3 sequence (P0A0K8 whole entry): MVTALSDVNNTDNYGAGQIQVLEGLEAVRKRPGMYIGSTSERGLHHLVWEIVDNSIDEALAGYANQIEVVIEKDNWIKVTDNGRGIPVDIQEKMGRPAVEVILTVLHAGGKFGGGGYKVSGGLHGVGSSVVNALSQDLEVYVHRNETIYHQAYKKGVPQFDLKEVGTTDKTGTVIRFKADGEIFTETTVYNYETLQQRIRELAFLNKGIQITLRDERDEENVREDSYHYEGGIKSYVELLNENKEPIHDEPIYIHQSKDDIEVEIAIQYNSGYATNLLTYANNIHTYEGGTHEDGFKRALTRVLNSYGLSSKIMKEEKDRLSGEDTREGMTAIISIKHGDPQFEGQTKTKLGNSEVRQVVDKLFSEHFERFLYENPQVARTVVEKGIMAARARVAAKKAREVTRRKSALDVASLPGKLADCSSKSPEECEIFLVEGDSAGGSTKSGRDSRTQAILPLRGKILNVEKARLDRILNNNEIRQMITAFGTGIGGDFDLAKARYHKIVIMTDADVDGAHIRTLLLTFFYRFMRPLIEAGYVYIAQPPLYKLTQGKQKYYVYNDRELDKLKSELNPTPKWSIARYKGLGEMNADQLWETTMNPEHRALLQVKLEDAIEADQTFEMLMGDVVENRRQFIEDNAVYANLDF
T3 sequence (P20831 whole entry): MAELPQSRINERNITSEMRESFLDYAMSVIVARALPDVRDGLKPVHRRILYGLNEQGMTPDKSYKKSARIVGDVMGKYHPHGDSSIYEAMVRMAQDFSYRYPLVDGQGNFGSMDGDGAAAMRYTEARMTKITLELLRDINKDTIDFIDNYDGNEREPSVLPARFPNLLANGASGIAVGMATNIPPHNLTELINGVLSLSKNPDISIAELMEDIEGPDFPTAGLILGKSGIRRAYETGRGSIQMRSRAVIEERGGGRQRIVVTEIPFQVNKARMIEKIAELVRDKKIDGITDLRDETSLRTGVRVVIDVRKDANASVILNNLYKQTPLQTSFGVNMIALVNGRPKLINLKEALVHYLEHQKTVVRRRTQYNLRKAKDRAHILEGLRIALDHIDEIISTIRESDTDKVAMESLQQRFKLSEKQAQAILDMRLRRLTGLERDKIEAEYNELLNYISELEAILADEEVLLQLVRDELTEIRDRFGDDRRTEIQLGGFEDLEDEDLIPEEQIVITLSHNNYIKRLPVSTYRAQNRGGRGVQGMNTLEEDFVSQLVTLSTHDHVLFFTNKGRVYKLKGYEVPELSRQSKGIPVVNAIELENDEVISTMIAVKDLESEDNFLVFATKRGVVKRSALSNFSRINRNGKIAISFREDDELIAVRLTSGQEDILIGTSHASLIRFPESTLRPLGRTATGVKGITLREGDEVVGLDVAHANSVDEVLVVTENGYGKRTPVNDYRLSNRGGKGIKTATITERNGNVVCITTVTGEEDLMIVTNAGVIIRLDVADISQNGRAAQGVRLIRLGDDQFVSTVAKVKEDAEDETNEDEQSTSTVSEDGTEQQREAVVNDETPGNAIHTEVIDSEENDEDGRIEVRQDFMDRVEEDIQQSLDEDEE
T1 sequence (P0AES4 whole entry, one chain of several): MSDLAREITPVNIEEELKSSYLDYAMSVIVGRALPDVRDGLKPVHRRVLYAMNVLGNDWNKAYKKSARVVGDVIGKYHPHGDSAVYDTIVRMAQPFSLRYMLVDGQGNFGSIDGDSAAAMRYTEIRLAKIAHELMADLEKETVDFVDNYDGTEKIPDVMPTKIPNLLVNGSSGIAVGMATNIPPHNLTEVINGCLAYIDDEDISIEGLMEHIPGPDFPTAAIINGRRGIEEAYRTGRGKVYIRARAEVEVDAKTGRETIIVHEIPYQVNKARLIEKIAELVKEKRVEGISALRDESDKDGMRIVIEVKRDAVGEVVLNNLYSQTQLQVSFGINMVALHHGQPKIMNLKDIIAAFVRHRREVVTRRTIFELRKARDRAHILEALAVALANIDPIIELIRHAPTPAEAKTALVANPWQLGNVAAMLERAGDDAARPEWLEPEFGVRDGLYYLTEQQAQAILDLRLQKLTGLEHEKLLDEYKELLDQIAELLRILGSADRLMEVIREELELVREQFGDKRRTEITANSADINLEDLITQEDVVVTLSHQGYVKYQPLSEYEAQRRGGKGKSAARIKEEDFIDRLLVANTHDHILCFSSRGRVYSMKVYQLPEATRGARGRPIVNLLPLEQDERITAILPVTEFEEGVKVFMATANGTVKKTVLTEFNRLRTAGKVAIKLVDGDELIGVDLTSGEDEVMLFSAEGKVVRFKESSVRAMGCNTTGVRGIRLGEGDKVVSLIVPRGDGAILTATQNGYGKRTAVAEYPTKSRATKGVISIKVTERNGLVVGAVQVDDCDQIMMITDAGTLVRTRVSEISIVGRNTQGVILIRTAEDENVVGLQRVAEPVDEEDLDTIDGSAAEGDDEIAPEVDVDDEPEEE
T2 sequence (P20083 whole entry): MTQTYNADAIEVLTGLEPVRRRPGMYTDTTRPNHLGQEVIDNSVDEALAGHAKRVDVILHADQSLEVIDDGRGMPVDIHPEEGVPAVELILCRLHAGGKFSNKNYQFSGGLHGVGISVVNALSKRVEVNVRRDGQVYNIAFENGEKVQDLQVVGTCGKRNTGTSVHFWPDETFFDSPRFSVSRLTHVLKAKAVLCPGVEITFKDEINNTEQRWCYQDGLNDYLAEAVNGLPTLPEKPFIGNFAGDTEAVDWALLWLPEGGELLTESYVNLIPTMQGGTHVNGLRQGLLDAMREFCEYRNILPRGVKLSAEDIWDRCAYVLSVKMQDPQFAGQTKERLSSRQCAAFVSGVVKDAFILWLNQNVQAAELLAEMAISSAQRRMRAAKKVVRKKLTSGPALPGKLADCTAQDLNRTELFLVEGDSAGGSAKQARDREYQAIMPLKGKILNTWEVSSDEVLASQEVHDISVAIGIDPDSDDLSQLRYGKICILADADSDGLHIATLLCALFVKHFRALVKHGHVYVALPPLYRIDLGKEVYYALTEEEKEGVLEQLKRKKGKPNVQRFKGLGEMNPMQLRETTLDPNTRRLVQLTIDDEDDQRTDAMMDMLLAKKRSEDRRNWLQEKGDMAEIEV
T2 sequence (P0AFI2 whole entry): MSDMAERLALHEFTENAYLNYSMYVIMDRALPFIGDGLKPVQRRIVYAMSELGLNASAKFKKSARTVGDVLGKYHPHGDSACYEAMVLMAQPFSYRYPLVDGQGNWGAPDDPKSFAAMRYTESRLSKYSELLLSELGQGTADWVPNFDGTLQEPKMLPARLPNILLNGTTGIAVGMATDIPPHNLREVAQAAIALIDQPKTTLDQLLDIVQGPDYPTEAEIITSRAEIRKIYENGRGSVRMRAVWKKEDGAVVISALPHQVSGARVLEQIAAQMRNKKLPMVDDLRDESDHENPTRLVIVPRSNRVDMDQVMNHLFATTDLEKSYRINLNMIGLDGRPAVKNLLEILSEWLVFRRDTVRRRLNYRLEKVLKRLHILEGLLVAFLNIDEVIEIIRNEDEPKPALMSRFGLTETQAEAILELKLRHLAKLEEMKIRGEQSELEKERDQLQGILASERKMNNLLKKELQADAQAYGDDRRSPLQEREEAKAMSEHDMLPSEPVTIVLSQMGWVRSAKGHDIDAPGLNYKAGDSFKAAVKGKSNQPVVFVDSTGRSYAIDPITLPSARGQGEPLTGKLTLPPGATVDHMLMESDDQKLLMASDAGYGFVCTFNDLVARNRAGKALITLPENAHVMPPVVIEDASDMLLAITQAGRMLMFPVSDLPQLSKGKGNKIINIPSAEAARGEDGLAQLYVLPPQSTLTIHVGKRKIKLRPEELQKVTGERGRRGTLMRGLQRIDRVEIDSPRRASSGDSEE

By IC50 is commonly meant the concentration that gives 50% inhibition. Broadly, the inhibition is the change of the read-out against control, counted positive when it falls. For `O=CNC(CN1CCN(c2nccc3ccc(F)cc23)CC1)c1nc2c(=O)oc3ccccc3c2[nH]1` (centres unmarked) [Compound 159, N-{2-[4-(7-fluoroisoquinolin-1-yl)piperazin-1-yl]-1-(4-oxo-1,4-dihydro[1]benzopyrano[3,4-d]imidazol-2-yl)ethyl}formamide hydrochloride], the IC50 is 1650 nM on E. coli DNA gyrase, 1040 nM against E. coli Topoisomerase IV, 510 nM on S. aureus DNA gyrase and 1090 nM in experiment [1] (setting [2]). Also, the inhibition at 50 µM came out at 94% against E. coli DNA gyrase, 98% on E. coli Topoisomerase IV, 100% against S. aureus DNA gyrase and 100% in experiment [1].

As to `O=c1nc(NCC(O)CN2CCN(c3nccc4ncc(F)cc34)CC2)c2cc(F)ccc2o1` (centres unmarked) [Compound 162, 6-fluoro-4-({3-[4-(3-fluoro-1,6-naphthyridin-5-yl)piperazin-1-yl]-2-hydroxypropyl}amino)-2H-1,3-benzoxazin-2-one], the concentration for half-maximal inhibition (IC50) was found to be 4850 nM against E. coli DNA gyrase, 950 nM against E. coli Topoisomerase IV, 880 nM against S. aureus DNA gyrase and 310 nM in experiment [1] (setting [2]). For the same compound, the inhibition at 50 µM against E. coli DNA gyrase turned out to be 95%; on E. coli Topoisomerase IV it was 100%; at S. aureus DNA gyrase, 100%; in experiment [1] (setting [3]), 100%.

On to `O=c1nc(NCC(O)CN2CCN(c3nccc4ncc(C(F)(F)F)cc34)CC2)c2cc(F)ccc2o1` (centres unmarked) [Compound 163, 6-fluoro-4-[(2-hydroxy-3-{4-[3-(trifluoromethyl)-1,6-naphthyridin-5-yl]piperazin-1-yl}propyl)amino]-2H-1,3-benzoxazin-2-one], for which the IC50 turned out to be 4400 nM against E. coli DNA gyrase, 9890 nM on E. coli Topoisomerase IV, 82700 nM at S. aureus DNA gyrase and 1220 nM in experiment [1] (setting [2]). In addition, the inhibition at 50 µM against E. coli DNA gyrase was determined as 80%; at E. coli Topoisomerase IV it was 90%; on S. aureus DNA gyrase, 30%; in experiment [1] (setting [3]), 100%.

Turning to `O=c1cc(NCC(O)CN2CCN(c3nccc4ncccc34)CC2)c2cc(F)ccc2o1` (centres unmarked) [Compound 166, 6-fluoro-4-({2-hydroxy-3-[4-(1,6-naphthyridin-5-yl)piperazin-1-yl]propyl}amino)-2H-1-benzopyran-2-one], the concentration for half-maximal inhibition (IC50) at E. coli DNA gyrase came out at 150 nM; on E. coli Topoisomerase IV it was 200 nM; against S. aureus DNA gyrase, 1130 nM; in experiment [1] (setting [2]), 300 nM. Also, the inhibition at 50 µM is 80% at E. coli DNA gyrase, 90% at E. coli Topoisomerase IV, 70% on S. aureus DNA gyrase and 97% in experiment [1].

For `COC1CN(c2nccc3ccc(F)cc23)CCC1NCc1cc2c(=O)oc3ccccc3c2[nH]1` (centres unmarked) [Compound 171, 2-({[1-(7-fluoroisoquinolin-1-yl)-3-methoxypiperidin-4-yl]amino}methyl)[1]benzopyrano[4,3-b]pyrrol-4(1H)-one], the inhibition at 50 µM against E. coli DNA gyrase was determined as 93%; on E. coli Topoisomerase IV it was 97%; against S. aureus DNA gyrase, 100%; in experiment [1] (setting [3]), 72%.

On to `O=c1oc2ccccc2c2[nH]c(CNC3CCN(c4nccc5ccc(F)cc45)CC3F)cc12` (centres unmarked) [Compound 172, 2-({[3-fluoro-1-(7-fluoroisoquinolin-1-yl)piperidin-4-yl]amino}methyl)[1]benzopyrano[4,3-b]pyrrol-4(1H)-one], for which the inhibition at 50 µM is 94% against E. coli DNA gyrase, 89% on E. coli Topoisomerase IV, 64% at S. aureus DNA gyrase and 39% in experiment [1] (setting [3]).

Consider `CC1CN(c2nccc3ccc(F)cc23)CCC1NCc1cc2c(=O)oc3ccccc3c2[nH]1` (centres unmarked) [Compound 177, 2-({[1-(7-fluoroisoquinolin-1-yl)-3-methylpiperidin-4-yl]amino}methyl) [1]benzopyrano[4,3-b]pyrrol-4(1H)-one], for which the inhibition at 50 µM stood at 77% on E. coli DNA gyrase, 74% at E. coli Topoisomerase IV, 98% at S. aureus DNA gyrase and 14% in experiment [1] (setting [3]).

Consider `O=c1oc2ccccc2c2[nH]c(CNC3CCN(c4nccc5ccc(F)cc45)CC3O)cc12` (centres unmarked) [Compound 186, 2-({[1-(7-fluoroisoquinolin-1-yl)-3-hydroxypiperidin-4-yl]amino}methyl)[1]benzopyrano[4,3-b]pyrrol-4(1H)-one], for which the inhibition at 50 µM amounted to 70% on E. coli DNA gyrase, 54% at E. coli Topoisomerase IV, 100% on S. aureus DNA gyrase and 87% in experiment [1] (setting [3]).

Take `O=c1oc2ccc(F)cc2c2cc(CNC3CCN(c4nccc5ncccc45)CC3)[nH]c12` [Compound 187, 8-fluoro-2-({[1-(1,6-naphthyridin-5-yl)piperidin-4-yl]amino}methyl)[1]benzopyrano[3,4-b]pyrrol-4(3H)-one]: the IC50 was determined as 190 nM against E. coli DNA gyrase, 1570 nM against E. coli Topoisomerase IV, 160 nM against S. aureus DNA gyrase and 1370 nM in experiment [1]. Further, the inhibition at 50 µM on E. coli DNA gyrase was determined as 79%; at E. coli Topoisomerase IV, 82%; against S. aureus DNA gyrase it was 95%; in experiment [1] (setting [3]), 95%.

Consider `COc1ccc2nccc(N3CCC(NCc4cc5c([nH]4)c(=O)oc4ccc(F)cc45)CC3)c2n1` [Compound 188, 8-fluoro-2-({[1-(6-methoxy-1,5-naphthyridin-4-yl)piperidin-4-yl]amino}methyl)[1]benzopyrano[3,4-b]pyrrol-4(3H)-one], for which the 50% inhibitory concentration (IC50) against E. coli DNA gyrase was determined as 90 nM; on E. coli Topoisomerase IV, 300 nM; on S. aureus DNA gyrase it was 15 nM; in experiment [1] it was 200 nM. The inhibition at 50 µM at E. coli DNA gyrase is 100%; on E. coli Topoisomerase IV, 92%; against S. aureus DNA gyrase, 97%; in experiment [1] (setting [3]), 98%.

On to `COc1ccc2ncc(F)c(N3CCC(NCc4cc5c([nH]4)c(=O)oc4ccc(F)cc45)CC3)c2n1` [Compound 192, 8-fluoro-2-({[1-(3-fluoro-6-methoxy-1,5-naphthyridin-4-yl)piperidin-4-yl]amino}methyl)[1]benzopyrano[3,4-b]pyrrol-4(3H)-one], for which the IC50 was 80 nM against E. coli DNA gyrase, 130 nM at E. coli Topoisomerase IV, 17 nM at S. aureus DNA gyrase and 100 nM in experiment [1]. For the same compound, the inhibition at 50 µM worked out at 70% against E. coli DNA gyrase, 37% at E. coli Topoisomerase IV, 88% at S. aureus DNA gyrase and 76% in experiment [1] (setting [3]).

Regarding `COc1ccc2ncc(C#N)c(N3CCC(NCc4cc5c([nH]4)c(=O)oc4ccc(F)cc45)CC3)c2n1` [Compound 195, 4-(4-{[(8-fluoro-4-oxo-3,4-dihydro[1]benzopyrano[3,4-b]pyrrol-2-yl)methyl]amino}piperidin-1-yl)-6-methoxy-1,5-naphthyridine-3-carbonitrile], the IC50 against E. coli DNA gyrase amounted to 140 nM; on E. coli Topoisomerase IV, 300 nM; on S. aureus DNA gyrase, 100 nM; in experiment [1] it was 100 nM. Besides, the inhibition at 50 µM at E. coli DNA gyrase turned out to be 99%; at E. coli Topoisomerase IV, 100%; on S. aureus DNA gyrase, 100%; in experiment [1] (setting [3]) it was 100%.
